Reference: patent EP4635949A1 (Jiangsu NHWA Pharmaceutical Co., Ltd, priority 2022, dated 2024)
pIC50: −log10 of the molar value. Where two headings read alike, the source gives them in different places.

What was measured:
OX1 receptor = target: T1, OX1 receptor (Homo sapiens, UniProt O43613); assay: Orexin target function test (Cisbio HTRF IP-one), CHO-K1-OX1 cells, antagonism of EC80 Orexin A; format: cell-based
T1 construct: host or cells: CHO-K1
T1 sequence (O43613 1-425): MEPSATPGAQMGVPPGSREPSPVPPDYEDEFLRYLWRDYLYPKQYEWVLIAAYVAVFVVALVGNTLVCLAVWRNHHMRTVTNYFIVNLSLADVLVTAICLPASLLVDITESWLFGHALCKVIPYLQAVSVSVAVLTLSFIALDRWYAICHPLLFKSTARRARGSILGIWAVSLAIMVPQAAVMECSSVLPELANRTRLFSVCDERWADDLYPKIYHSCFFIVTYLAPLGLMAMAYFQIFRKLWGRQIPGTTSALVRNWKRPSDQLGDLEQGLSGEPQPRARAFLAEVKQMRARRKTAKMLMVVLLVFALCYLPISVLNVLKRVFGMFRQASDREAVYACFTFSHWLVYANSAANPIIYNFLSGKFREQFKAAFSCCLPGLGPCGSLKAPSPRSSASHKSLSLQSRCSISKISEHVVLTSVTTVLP
Method: (§1) Using Cisbio HTRF IP-one kit to detect the changes in IP-one concentration of orexin receptor (OX1/OX2) signaling pathway by microplate reader, and calculating the IC50 value of the compound to evaluate the antagonistic effect of the compound on OX1 and OX2 receptors.
(§2) The cells were centrifuged at 1000 rpm for 5 minutes and the supernatant was discarded. 3 mL of PBS was added, and gently blown with a pipette to mix. After centrifugation at 1000 rpm for 5 minutes again, the supernatant was discarded. […] Based on the antagonistic effect values of the compound samples at different concentrations, the GraphPad Prism software was used to fit the orexin receptor antagonism curve of the compound samples and calculate the IC50.

OX2 receptor = target: T2, OX2 receptor (Homo sapiens, UniProt O43614); assay: Orexin target function test (Cisbio HTRF IP-one), CHO-K1-OX2 cells, antagonism of EC80 Orexin 2 receptor agonist; format: cell-based
T2 construct: host or cells: CHO-K1
T2 sequence (O43614 1-444): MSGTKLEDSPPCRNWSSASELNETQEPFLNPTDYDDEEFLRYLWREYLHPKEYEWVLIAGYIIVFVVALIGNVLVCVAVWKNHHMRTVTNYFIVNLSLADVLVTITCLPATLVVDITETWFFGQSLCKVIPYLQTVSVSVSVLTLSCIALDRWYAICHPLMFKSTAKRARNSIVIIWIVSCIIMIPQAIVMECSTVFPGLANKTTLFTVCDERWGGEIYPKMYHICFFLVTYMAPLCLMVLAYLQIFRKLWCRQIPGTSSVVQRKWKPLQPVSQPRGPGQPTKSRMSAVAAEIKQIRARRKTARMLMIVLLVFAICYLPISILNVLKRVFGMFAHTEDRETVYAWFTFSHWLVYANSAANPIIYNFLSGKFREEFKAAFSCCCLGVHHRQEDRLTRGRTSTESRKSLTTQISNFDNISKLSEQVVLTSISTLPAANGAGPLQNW
Method: as §1, §2

in vivo = settings: male, SD, rat, plasma
[1] = CHO-K1-OX1 cells, IP-one, read-out: hOXIR IC50
[2] = CHO-K1-OX2 cells, IP-one, read-out: hOX2R IC50
[3] = ratio of OX1R IC50 to OX2R IC50

SMILES | pIC50 (OX1 receptor; [1]) | pIC50 (OX2 receptor; [2]) | Selectivity (OX2 receptor; [3]) | pIC50 (OX1 receptor) | pIC50 (OX2 receptor) | further results
COc1ccc(C(=O)N2C[C@H]3CC(c4nc(Cl)cnc4OC)=C[C@H]3C2)c(-n2nccn2)c1 (relative stereo) [Compound 54] | 5.59 | 7.66 | 118 |  |  | 
CCc1c(C)nc(C2=CC3CN(C(=O)c4c(F)cccc4-n4nccn4)CC3C2)nc1C (centres unmarked) [Compound 11, (5-(5-ethyl-4,6-dimethylpyrimidin-2-yl)-3,3a,4,6a-tetrahydrocyclopenta[c]pyrrol-2(1H)-yl)(2-fluoro-6-(2H-1,2,3-triazol-2-yl)phenyl)methanone] | 5.71 | 7.57 | 72 |  |  | 
Cc1nc(C2=CC3CN(C(=O)c4c(F)cccc4-n4nccn4)CC3C2)nc2c1CCCC2 (centres unmarked) [Compound 14, (2-fluoro-6-(2H-1,2,3-triazol-2-yl)phenyl)(5-(4-methyl-5,6,7,8-tetrahydroquinazolin-2-yl)-3,3a, 4,6a-tetrahydrocyclopenta[c]pyrrol-2(1H)-yl)methanone] | 5.56 | 7.62 | 114 |  |  | 
Cc1nc(C2=CC3CN(C(=O)c4c(F)cccc4-n4nccn4)CC3C2)nc2c1COCC2 (centres unmarked) [Compound 16, (2-fluoro-6-(2H-1,2,3-triazol-2-yl)phenyl)(5-(4-methyl-7,8-dihydro-5H-pyrano[4,3-d]pyrimidin-2-yl)-3,3a,4,6a-tetrahydrocyclopenta[c]pyrrol-2(1H)-yl)methanone] | 5.73 | 7.70 | 94 |  |  | 
Cc1nc(C2=CC3CN(C(=O)c4c(F)cccc4-n4nccn4)CC3C2)nc2c1CCC2 (centres unmarked) [Compound 17, (2-fluoro-6-(2H-1,2,3-triazol-2-yl)phenyl)(5-(4-methyl-6,7-dihydro-5H-cyclopenta[d]pyrimidin-2-yl)-3,3a,4,6a-tetrahydrocyclopenta[c]pyrrol-2(1H)-yl)methanone] |  |  | 131 | 5.54 | 7.66 | 
Cc1nc(C2=CC3CN(C(=O)c4c(F)cccc4-n4nccn4)CC3C2)nc2ccoc12 (centres unmarked) [Compound 18, (2-fluoro-6-(2H-1,2,3-triazol-2-yl)phenyl)(5-(4-methylfuro[3,2-d]pyrimidin-2-yl)-3,3a,4,6a-tetrahydrocyclopenta[c]pyrrol-2(1H)-yl)methanone] |  |  | 99 | 5.64 | 7.63 | 
Cc1nc(C2=CC3CN(C(=O)c4c(F)cccc4-n4nccn4)CC3C2)nc2c1OCC2 (centres unmarked) [Compound 19, (2-fluoro-6-(2H-1,2,3-triazol-2-yl)phenyl)(5-(4-methyl-6,7-dihydrofuro[3,2-d]pyrimidin-2-yl)-3,3a,4,6a-tetrahydrocyclopenta[c]pyrrol-2(1H)-yl)methanone] | 5.61 | 7.74 | 138 |  |  | 
COc1nc(C2=CC3CN(C(=O)c4ccccc4-n4nccn4)CC3C2)nc(C)c1F (centres unmarked) [Compound 27, (2-(2H-1,2,3-triazol-2-yl)phenyl)(5-(5-fluoro-4-methoxy-6-methylpyrimidin-2-yl)-3,3a,4,6a-tetrahydrocyclopenta[c]pyrrol-2(1H)-yl)methanone] | 5.77 | 7.70 | 84 |  |  | 
Cc1nc(C2=CC3CN(C(=O)c4c(F)cccc4-c4cc[nH]n4)CC3C2)nc(C)c1F (centres unmarked) [Compound 29, (5-(5-fluoro-4,6-dimethylpyrimidin-2-yl)-3,3a,4,6a-tetrahydrocyclopenta[c]pyrrol-2(1H)-yl)(2-fluoro-6-(1H-pyrazol-3-yl)phenyl)methanone] | 5.89 | 7.70 | 64 |  |  | 
[2H]C([2H])([2H])c1nc(C2=CC3CN(C(=O)c4ccc(F)cc4-n4nccn4)CC3C2)nc(C([2H])([2H])[2H])c1F (centres unmarked) [Compound 30, (4-fluoro-2-(2H-1,2,3-triazol-2-yl)phenyl)(5-(5-fluoro-4,6-bis(methyl-d3)pyrimidin-2-yl)-3,3a,4,6a-tetrahydrocyclopenta[c]pyrrol-2(1H)-yl)methanone] |  |  | 186 | 5.41 | 7.68 | 
[2H]C([2H])([2H])Oc1cc(-n2nccn2)c(C(=O)N2CC3C=C(c4nc(C)c(F)c(C)n4)CC3C2)cn1 (centres unmarked) [Compound 34, (5-(5-fluoro-4,6-dimethylpyrimidin-2-yl)-3,3a,4,6a-tetrahydrocyclopenta[c]pyrrol-2(1H)-yl)(6-(methoxy-d3)-4-(2H-1,2,3-triazol-2-yl)pyridin-3-yl)methanone] |  |  |  | 5.30 | 7.62 | Selectivity (OX2 receptor): 208
[2H]C([2H])([2H])Oc1ccc(C(=O)N2CC3C=C(c4nc(C)c(F)c(C)n4)CC3C2)c(-n2nccn2)c1 (centres unmarked) [Compound 36, (5-(5-fluoro-4,6-dimethylpyrimidin-2-yl)-3,3a,4,6a-tetrahydrocyclopenta[c]pyrrol-2(1H)-yl)(4-(methoxy-d3)-2-(2H-1,2,3-triazol-2-yl)phenyl)methanone] |  |  |  | 5.51 | 7.74 | Selectivity (OX2 receptor): 172
Cc1nc(C2=CC3CN(C(=O)c4c(F)cccc4-n4nccn4)CC3C2)nc(C(C)(C)O)c1F (centres unmarked) [Compound 37, (5-(5-fluoro-4-(2-hydroxypropan-2-yl)-6-methylpyrimidin-2-yl)-3,3a,4,6a-tetrahydrocyclopenta[c]pyrrol-2(1H)-yl)(2-fluoro-6-(2H-1,2,3-triazol-2-yl)phenyl)methanone] |  |  |  |  |  | AUC(0-t) (in vivo; iv, 1 mg/kg): 626 ng·h/mL; Cmax (in vivo; iv, 1 mg/kg): 980 ng/mL; AUC(0-t) (in vivo; po, 30 mg/kg): 16800 ng·h/mL; Cmax (in vivo; po, 30 mg/kg): 9240 ng/mL; bioavailability (in vivo; po, 30 mg/kg): 89.3%
Cc1nc(C2=CC3CN(C(=O)c4c(F)cccc4-n4nccn4)CC3C2)nc(C)c1CF (centres unmarked) [Compound 38, (2-fluoro-6-(2H-1,2,3-triazol-2-yl)phenyl)(5-(5-(fluoromethyl)-4,6-dimethylpyrimidin-2-yl)-3,3a,4,6a-tetrahydrocyclopenta[c]pyrrol-2(1H)-yl)methanone] | 5.74 | 7.66 | 82 |  |  | 
COc1ncc(C)nc1C1=CC2CN(C(=O)c3c(F)cccc3-c3ncccn3)CC2C1 (centres unmarked) [Compound 43, (2-fluoro-6-(pyrimidin-2-yl)phenyl)(5-(3-methoxy-6-methylpyrazin-2-yl)-3,3a,4,6a-tetrahydrocyclopenta[c]pyrrol-2(1H)-yl)methanone] | 5.68 | 7.55 | 75 |  |  | 
COc1cnc(OC)c(C2=CC3CN(C(=O)c4ccc(F)cc4-n4nccn4)CC3C2)n1 (centres unmarked) [Compound 50, [5-(3,6-dimethoxypyrazin-2-yl)-3,3a,4,6a-tetrahydrocyclopenta[c]pyrrol-2(1H)-yl][4-fluoro-2-(2H-1,2,3-triazol-2-yl)phenyl]methanone] |  |  | 134 | 5.44 | 7.57 | 
COc1ccc(C(=O)N2CC3C=C(c4nc(OC)cnc4OC)CC3C2)c(-n2nccn2)c1 (centres unmarked) [Compound 53, [5-(3,6-dimethoxypyrazin-2-yl)-3,3a,4,6a-tetrahydrocyclopenta[c]pyrrol-2(1H)-yl][4-methoxy-2-(2H-1,2,3-triazol-2-yl)phenyl]methanone] | 5.54 | 7.49 | 89 |  |  | 
COc1ncc(C2CC2)nc1C1=CC2CN(C(=O)c3ccc(F)cc3-n3nccn3)CC2C1 (centres unmarked) [Compound 55, [5-(6-cyclopropyl-3-methoxypyrazin-2-yl)-3,3a,4,6a-tetrahydrocyclopenta[c]pyrrol-2(1H)-yl][4-fluoro-2-(2H-1,2,3-triazol-2-yl)phenyl]methanone] |  |  | 67 | 5.72 | 7.55 | 
